According to patent US9856259B2, “Heterocyclic compounds and uses thereof” (Plexxikon Inc., priority 2014, dated 2018):

Test system: cancer cell lines / MV-4-11 Myc reporter cell line
Experiment: Bromodomain cell assays of Example 8 (at least one of them)
Assay type: cell-based
Settings: Homo sapiens, MV4-11; at least one of the bromodomain cell assays described in Example 8
Procedure: In this study, we test compounds in different cancer cell lines. MV-4-11 and MOLM-13 are AML cell lines harboring a MLL-AF4 and MLL-AF9 translocation, respectively. MM.1S is a multiple myeloma cell line. SK—N-AS, IMR-32 and SK-N-BE(2) are neuroblastoma cell lines. IMR-32 and SK-N-BE(2) cell lines harbor MYCN amplifications.
MV-4-11, MM.1S, IMR-32, SK-N-AS and SK-N-BE(2) were obtained from ATCC (IL, USA) and MOLM-13 were purchased from DSMZ (Braunschweig, German). Cells are cultured as recommended by their sources. For growth inhibition studies 3000 cells are seeded in wells of a 96-well plate in 75 μL of culture media. After several hours, growth media containing compounds of formula (I) are added to the wells. Compound at a maximal concentration of 5 mM was serially diluted 1:3 for a total of 8 point titration with DMSO as a control. A 1 μL aliquot of each dilution point is added to 249 μL growth media and 75 μL is added to each well containing cells, providing 10 μM compound at the maximum concentration point. The final concentration of DMSO in all wells is 0.2%. Cells are incubated for 72 hours, and 25 μL of CellTiter Glo Reagent (Promega Ga., USA) is added to each well. Plates are shaken for approximately 10 minutes and chemiluminescent signal is read on Tecan microplate reader. The measured luminescence correlates directly with cell number.
All data is normalized to the mean of eight DMSO high control wells on each plate. A four parameter curve fit of the following formula was then applied: Y=a+(b−a)/(1+(x/c)^d) Where ‘a’ is the minimum, ‘b’ is the maximum, ‘c’ is the pIC50 and ‘d’ is the Hill slope. […] Myc Reporter Assay
In MV-4-11 cells, BRD2, BRD3 and BRD4 bind to the promoter region of MYC and regulate its transcription (Dawson M A et al. 2011). The literature bromodomain inhibitor iBET 151 could disrupt BRD4 recruitment to the MYC promoter and subsequently downregulate c-myc transcription (Dawson M A et al. 2011). Myc protein is a transcription factor that heterodimerizes with an obligatory partner Max and regulates the transcription of genes important for cell proliferation, differentiation, and apoptosis. This Myc reporter assay is used to monitor the inhibitory effect of compound of formula (I) on Myc dependent gene expression. Effective compounds could have potential therapeutic effects in Myc-driven tumors.
The MV-4-11 Myc reporter cell line is established by infecting MV-4-11 with VSV-g pseudotyped lentivirus expressing the firefly luciferase gene under the control of a minimal (m) CMV promoter and tandem repeats of the E-box transcriptional response element (TRE) (Qiagen IL, USA) and selecting cells in 2.5 μg/ml Puromycin.
The MV-4-11 Myc reporter cell line is maintained in Iscove's Modified Dulbecco's Medium containing 10% FBS, 1% PenStep and 2.5 μg/ml Puromycin. Cells are incubated at 37° C. in a humidified atmosphere with 5% CO2. 25,000 cells are seeded in 96-well plate in 50 μL of culture media. After several hours, growth media containing 2× compounds are added to the wells. Compound at a maximal concentration of 5 mM is serially diluted 1:3 for a total of 8 point titration. A 1 μl aliquot of each dilution point is added to 249 μl growth media and 50 μl is added to each well containing cells, providing 10 μM compound at the maximum concentration point. DMSO treated cells serve as a high control and 10 μM JQ1 treated cells serve as a low control. Cells are incubated for a further 24 hours and 25 μL of CellTiter-Fluo Reagent (Promega Ga., USA) is added to each well. Plates are shaken for approximately 2 minutes and incubated at 37° C. for 0.5 hour. Fluorescence signal is read in a Tecan Plate reader (λex=400 nm, λcm=505 nm). 25 μL of One-Glo Reagent (Promega Ga., USA) is then added to the plates. Chemiluminescent signal is read on Tecan plate reader. Values from the wells with no cells are subtracted from all samples for background correction. […]

IC50, < 10 µM:
CCOC(=O)c1ccc(-n2nc(Cc3ccccc3)c3cc(-c4c(C)noc4C)cnc32)c(F)c1 [Compound P-2101, ethyl 4-[3-benzyl-5-(3,5-dimethylisoxazol-4-yl)pyrazolo[3,4-b]pyridin-1-yl]-3-fluoro-benzoate]
Cc1noc(C)c1-c1cnc2c(-c3ccc(CC(=O)O)cc3)nn([C@@H](C)c3ccccn3)c2c1 [Compound P-2094, 2-[4-[6-(3,5-dimethylisoxazol-4-yl)-1-[(1S)-1-(2-pyridyl)ethyl]pyrazolo[4,3-b]pyridin-3-yl]phenyl]acetic acid]
Cc1noc(C)c1-c1cnc2c(-c3cnn(CC(F)(F)F)c3)nn([C@@H](C)c3ccccn3)c2c1 [Compound P-2098, 3,5-dimethyl-4-[1-[(1S)-1-(2-pyridyl)ethyl]-3-[1-(2,2,2-trifluoroethyl)pyrazol-4-yl]pyrazolo[4,3-b]pyridin-6-yl]isoxazole]
Cc1noc(C)c1-c1cnc2[nH]nc(Cc3ccccc3)c2c1 [Compound P-2100, 4-(3-benzyl-1H-pyrazolo[3,4-b]pyridin-5-yl)-3,5-dimethyl-isoxazole]
Cc1noc(C)c1-c1cnc2c(-c3ccc(C(=O)O)cc3)nn(C(c3ccccc3)c3ccccn3)c2c1 (centres unmarked) [Compound P-2096, 4-[6-(3,5-dimethylisoxazol-4-yl)-1-[phenyl(2-pyridyl)methyl]pyrazolo[4,3-b]pyridin-3-yl]benzoic acid]
CCOC(=O)c1ccc(-n2nc(Cc3ccccc3)c3cc(-c4c(C)noc4C)ccc32)c(F)c1 [Compound P-2036, ethyl 4-[3-benzyl-5-(3,5-dimethylisoxazol-4-yl)indazol-1-yl]-3-fluoro-benzoate]
Cc1noc(C)c1-c1cnc2c(c1)c(Cc1ccccc1)nn2-c1ccc(C(=O)O)cc1F [Compound P-2102, 4-[3-benzyl-5-(3,5-dimethylisoxazol-4-yl)pyrazolo[3,4-b]pyridin-1-yl]-3-fluoro-benzoic acid]
Cc1noc(C)c1-c1ccc2c(c1)c(Cc1ccccc1)nn2-c1ccc(C(=O)O)cc1F [Compound P-2037, 4-[3-benzyl-5-(3,5-dimethylisoxazol-4-yl)indazol-1-yl]-3-fluoro-benzoic acid]
Cc1noc(C)c1-c1cnc2c(-c3ccc(C(=O)O)cc3)nn([C@@H](C)c3ccccn3)c2c1 [Compound P-2093, 4-[6-(3,5-dimethylisoxazol-4-yl)-1-[(1S)-1-(2-pyridyl)ethyl]pyrazolo[4,3-b]pyridin-3-yl]benzoic acid]
Cc1noc(C)c1-c1cnc2c(-c3cnn(C)c3)nn([C@@H](C)c3ccccn3)c2c1 [Compound P-2099, 3,5-dimethyl-4-[3-(1-methylpyrazol-4-yl)-1-[(1S)-1-(2-pyridyl)ethyl]pyrazolo[4,3-b]pyridin-6-yl]isoxazole]
Cc1noc(C)c1-c1ccc2[nH]nc(Cc3ccccc3)c2c1 [Compound P-2035, 4-(3-benzyl-1H-indazol-5-yl)-3,5-dimethyl-isoxazole]
Cc1noc(C)c1-c1cnc2c(I)nn(C(c3ccccc3)c3ccccn3)c2c1 (centres unmarked) [Compound P-2095, 4-[3-iodo-1-[phenyl(2-pyridyl)methyl]pyrazolo[4,3-b]pyridin-6-yl]-3,5-dimethyl-isoxazole]
Cc1noc(C)c1-c1cnc2c(-c3ccc(CC(=O)O)cc3)nn(C(c3ccccc3)c3ccccn3)c2c1 (centres unmarked) [Compound P-2097, 2-[4-[6-(3,5-dimethylisoxazol-4-yl)-1-[phenyl(2-pyridyl)methyl]pyrazolo[4,3-b]pyridin-3-yl]phenyl]acetic acid]
Cc1noc(C)c1-c1cnc2c(I)nn([C@@H](C)c3ccccn3)c2c1 [Compound P-2091, 4-[3-iodo-1-[(1S)-1-(2-pyridyl)ethyl]pyrazolo[4,3-b]pyridin-6-yl]-3,5-dimethyl-isoxazole]
